Source: patent publication US20050191290A1, “Means and methods for manipulating hypersensitivity-like responses” (priority 2002, published 2005)
Peptide text beside a SMILES is read from it.

Test system: healthy male volunteers
Test: Phase 1 single rising dose clinical safety study
Assay type: in vivo, human
Description: Primary objective: to study the safety and tolerability of F991 at increasing single dose levels in healthy male volunteers
Design: This study was a double-blind, placebo-controlled, single rising dose study in two alternating panels of eight healthy male volunteers. In each panel, two volunteers received placebo throughout the study and the other six volunteers received three increasing single doses of F991.
Safety assessments: vital signs; adverse events (including eyesight); ECG four times each period; clinical laboratory: on admission for each period
Panel I: period 1: 0.08 mg/kg F991 or placebo iv infusion • period 2: 0.8 mg/kg F991 or placebo iv infusion • period 3: 3.2 mg/kg F991 or placebo iv infusion
Panel II: period 1: 0.32 mg/kg F991 or placebo iv infusion • period 2: 1.6 mg/kg F991 or placebo iv infusion • period 3: 6.4 mg/kg F991 or placebo iv infusion Criteria for Evaluation
Safety: adverse events, clinical laboratory test results, ECG recordings, vital signs and physical examination

[1] = single i.v. doses 0.08-6.4 mg/kg

Compound: CC(C)C[C@H](NC(=O)[C@H](CS)NC(=O)[C@H](CS)NC(=O)[C@H](Cc1c[nH]cn1)NC(=O)CNC(=O)[C@H](CO)NC(=O)[C@H](Cc1c[nH]c2ccccc12)NC(=O)[C@H](Cc1c[nH]cn1)NC(=O)[C@H](C)N)C(=O)O [F991] (H-AHWSGHCCL-OH)
- safety and tolerability (I.V. single rising doses up to 6.4 mg/kg): safe and well tolerated
- SAEs during the study [1]: no SAEs
- clinical laboratory data, vital signs, ECG and physical examination [1]: no clinically significant abnormalities
- correlation between dose and number, frequency and intensity of AEs [1]: No correlation
- most frequently reported AEs for volunteers on active drug [1]: eye disorders
